# PubChem BioAssay AID1919004 (Molecular Pharmacology Branch, DTP, NCI, 2023)
# System: 883617-216-R-J1-PDC complex spheroids, growth, % test/control
# Assay: Anticancer human tumor 883617-216-R-J1-PDC patient-derived bladder carcinoma cell line growth inhibition [AhR]
# Details: for IC50: curve of first compound; for viability, T/C: stronger effect = lower value
# In short: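 Spheroids combined tumor cells with HUVEC endothelial cells and human MSCs as stroma. AhR antagonists were paired with standard or investigational drugs, each dosed in half-log steps down from near clinical Cmax, or from 10 microM where Cmax was unknown.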
# [1] = second compound 0.1 µM, first compound 0.000949 µM
# [2] = second compound 0.1 µM, first compound 0.003 µM
# [3] = second compound 0.1 µM, first compound 0.00949 µM
# [4] = second compound 0.1 µM, first compound 0.03 µM
# [5] = second compound 0.1 µM, first compound 0.0949 µM
# [6] = second compound 0.1 µM, first compound 0.3 µM
# [7] = second compound 0.316 µM, first compound 0.000949 µM
# [8] = second compound 0.316 µM, first compound 0.003 µM
# [9] = second compound 0.316 µM, first compound 0.00949 µM
# [10] = second compound 0.316 µM, first compound 0.03 µM
# [11] = second compound 0.316 µM, first compound 0.0949 µM
# [12] = second compound 0.316 µM, first compound 0.3 µM
# [13] = second compound 1 µM, first compound 0.000949 µM
# [14] = second compound 1 µM, first compound 0.003 µM
# [15] = second compound 1 µM, first compound 0.00949 µM
# [16] = second compound 1 µM, first compound 0.03 µM
# [17] = second compound 1 µM, first compound 0.0949 µM
# [18] = second compound 1 µM, first compound 0.3 µM
# [19] = second compound 3.16 µM, first compound 0.000949 µM
# [20] = second compound 3.16 µM, first compound 0.003 µM
# [21] = second compound 3.16 µM, first compound 0.00949 µM
# [22] = second compound 3.16 µM, first compound 0.03 µM
# [23] = second compound 3.16 µM, first compound 0.0949 µM
# [24] = second compound 3.16 µM, first compound 0.3 µM
# [25] = second compound 10 µM, first compound 0.000949 µM
# [26] = second compound 10 µM, first compound 0.003 µM
# [27] = second compound 10 µM, first compound 0.00949 µM
# [28] = second compound 10 µM, first compound 0.03 µM
# [29] = second compound 10 µM, first compound 0.0949 µM
# [30] = second compound 10 µM, first compound 0.3 µM
# 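Also: exposure lasted 7 days after dosing on day 3 of spheroid growth.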
SMILES,IC50 (second compound 0.1 µM) [nM],IC50 (second compound 0.316 µM) [nM],IC50 (second compound 1 µM) [nM],IC50 (second compound 3.16 µM) [nM],IC50 (second compound 10 µM) [nM],"viability, T/C [1] [%]","viability, T/C [2] [%]","viability, T/C [3] [%]","viability, T/C [4] [%]","viability, T/C [5] [%]","viability, T/C [6] [%]","viability, T/C [7] [%]","viability, T/C [8] [%]","viability, T/C [9] [%]","viability, T/C [10] [%]","viability, T/C [11] [%]","viability, T/C [12] [%]","viability, T/C [13] [%]","viability, T/C [14] [%]","viability, T/C [15] [%]",other results
CC(C)CC(NC(=O)C(Cc1ccccc1)NC(=O)c1cnccn1)B(O)O (stereo not given) + Cc1cncc(-c2nc(NCCc3c[nH]c4ccccc34)c3ncn(C(C)C)c3n2)c1,9.01,8.45,7.37,6.62,3.48,90.2,93.5,48.1,0.14,0.1,0.23,97.4,96.1,44.8,0.11,0.06,0.21,111,93.9,38.7,"viability, T/C [16]: 0.1%; viability, T/C [17]: 0.05%; viability, T/C [18]: 0.21%; viability, T/C [19]: 105%; viability, T/C [20]: 111%; viability, T/C [21]: 23.6%; viability, T/C [22]: 0.14%; viability, T/C [23]: 0.84%; viability, T/C [24]: 0.2%; viability, T/C [25]: 61.7%; viability, T/C [26]: 57.3%; viability, T/C [27]: 0.3%; viability, T/C [28]: 0.24%; viability, T/C [29]: 0.23%; viability, T/C [30]: 0.62%"
CCc1c2c(nc3ccc(O)cc13)-c1cc3c(c(=O)n1C2)COC(=O)[C@]3(O)CC + Cc1cncc(-c2nc(NCCc3c[nH]c4ccccc34)c3ncn(C(C)C)c3n2)c1,270,> 300,> 300,265,< 0.949,85.1,79.9,79,71.2,61.1,49,83.9,94.5,77.5,65.8,56.4,54.3,87.6,89.3,84.7,"viability, T/C [16]: 72.5%; viability, T/C [17]: 64.3%; viability, T/C [18]: 53.9%; viability, T/C [19]: 91.9%; viability, T/C [20]: 99.5%; viability, T/C [21]: 86.1%; viability, T/C [22]: 88.9%; viability, T/C [23]: 55.8%; viability, T/C [24]: 49.4%; viability, T/C [25]: 44.6%; viability, T/C [26]: 48.3%; viability, T/C [27]: 27.3%; viability, T/C [28]: 31.3%; viability, T/C [29]: 25.5%; viability, T/C [30]: 27.1%"
